# Results as given in patent US20070259856A1, “Method for Activating Trpv4 Channel Receptors by Agonists” (priority 2004, published 2007).
# Marks after values point to notes of the source that are not given here.
# How the values were obtained:
# [1] = target: T1, TRPV4 channel receptor (Bos taurus, UniProt A0A8F4X677); assay: Ca2+ influx in bovine articular chondrocytes (FlexStation); format: cell-based; conditions: bovine chondrocytes
# T1 construct: endogenous in cells; host or cells: bovine articular chondrocytes
# [2] = system: aggrecanase; assay: IL-1 induced aggrecanase production, chondrocyte-based aggrecanase peptide cleavage assay; format: cell-based, bovine; conditions: Bos taurus
# Source text: Aggrecanases (ADAMTSs), in conjunction with MMPs, degrade aggrecan, one of the major matrix components in articular cartilage. […] 2003; 48(1): 119-133].
# [3] = system: bovine articular cartilage explants; assay: IL-1 induced aggrecan degradation (GAG release, DMMB) in bovine articular cartilage explants; format: cell-based; conditions: Bos taurus; IL-1-stimulated bovine cartilage
# Source text: Articular cartilage explants isolated from newborn calves at slaughter were placed in culture, and aggrecan degradation was initiated through stimulation with IL-1. Since aggrecan degradation in this model is believed to be mediated by aggrecanase, TRPV4 channel receptor agonists that are active in the chondrocyte-based aggrecanase peptide assay (Example 11) may also be effective inhibitors in the cartilage explant assay, presumably by blocking aggrecanase production in these tissues.
# At the end of the culture period, conditioned media were assayed for glycosaminoglycan (GAG) levels by colorimetric (DMMB) assay as a measure of aggrecan degradation. In bovine explants, IL-1 induced a profound increase in the amount of GAG released into the media during the 3 day culture. When cartilage was treated with IL-1 in combination with Formula IIc, there was a concentration-dependent reduction in GAG release as shown in Table 5.
# [4] = system: human cartilage explants; assay: Aggrecan degradation (GAG, DMMB) in human cartilage explants; format: cell-based; conditions: for GAG Mean ± SEM: cumulative, 21 days
# Description: Because the progression of aggrecan degradation in response to IL-1 in human cartilage is slower than in bovine cartilage, culture media was removed and replaced with fresh treatments every 2-3 days for approximately 3 weeks. For each timepoint, GAG levels were measured by DMMB assay, and cumulative data released over the entire 3 week culture period was calculated.
# The data represents cumulative aggrecan degradation after 21 days in culture. […] In addition, Formula IId caused a concentration-dependent reduction of IL-1-induced aggrecan degradation. […] The estimated IC50's shown in Table 7 are very similar to those IC50's calculated from IL-1-stimulated bovine cartilage.
# [5] = system: bovine articular cartilage explants; assay: IL-1 induced collagen degradation (hydroxyproline) in bovine articular cartilage explants; format: cell-based
# Description: IL-1 stimulates collagen degradation in bovine articular cartilage explants after extended (−2-3 weeks) exposure to IL-1. Collagen breakdown was evaluated by measuring the levels of hydroxyproline, a major component of hydrolyzed collagen fibrils, using a colorimetric assay that is understood in the art. Bovine articular cartilage was stimulated with IL-1 for 18 days, in the absence or presence of Formula Ib or Formula IId (both at 1 uM). Media was removed and replaced every 2-4 days with fresh IL-1 and compound through day 18. As has been shown previously, aggrecan degradation precedes collagen breakdown in IL-1-stimulated bovine cartilage explants. Once aggrecan depletion had been achieved by day 10, media were analyzed for collagen breakdown using the hydroxyproline assay.
# [6] = system: HEK293 MSRII cells without human TRPV4 vector; assay: Whole cell patch clamp, HEK293 MSRII cells exposed to BacMam virus alone; format: cell-based; conditions: 3 μM
# [7] = target: T2, TRPV4 channel receptor (Homo sapiens, UniProt Q9HBA0); assay: Ca2+ influx in human articular chondrocytes (FlexStation)
# [8] = target: T2, TRPV4 channel receptor; assay: Whole cell patch clamp, HEK293 MSRII cells transduced with human TRPV4 BacMam virus; format: cell-based; parameters: V5-His (from the vector's name only); expressed in transfected cells; host or cells: HEK293
# Source text: Functional, cell-based assays presently utilized to evaluate the activity of TRPV4 channel receptor agonists (e.g., FLIPR) provide an indirect, downstream measure of channel activation or blockage. In order to more directly evaluate a compound's effect on TRPV4 channel receptor, procedures to electrophysiologically record current flow through TRPV4 channels have been established. These procedures utilize HEK293 MSRII cells transiently transduced with 5% human TRPV4 BacMam virus, a standard extracellular physiological saline solution, and a well established, potassium channel-blocking electrode (internal) solution (Vriens et al., PNAS, 2004). Standard whole cell patch clamp techniques were used to maintain cells at a holding potential of 0 mV between inductions of 200 msec, −100 mV to +100 mV ramp protocols every 5 seconds. The inset of FIG. 1 represents the inward and outward current amplitude at −100 mV and +100 mV, respectively, during each ramp protocol prior to (baseline) and throughout the administration of 100 nM Formula IId. The main body of FIG. 1 illustrates the recorded current flow in response to a −100 mV to +100 mV ramp at the five specific times labelled in the inset.
# T2 sequence (Q9HBA0 whole entry): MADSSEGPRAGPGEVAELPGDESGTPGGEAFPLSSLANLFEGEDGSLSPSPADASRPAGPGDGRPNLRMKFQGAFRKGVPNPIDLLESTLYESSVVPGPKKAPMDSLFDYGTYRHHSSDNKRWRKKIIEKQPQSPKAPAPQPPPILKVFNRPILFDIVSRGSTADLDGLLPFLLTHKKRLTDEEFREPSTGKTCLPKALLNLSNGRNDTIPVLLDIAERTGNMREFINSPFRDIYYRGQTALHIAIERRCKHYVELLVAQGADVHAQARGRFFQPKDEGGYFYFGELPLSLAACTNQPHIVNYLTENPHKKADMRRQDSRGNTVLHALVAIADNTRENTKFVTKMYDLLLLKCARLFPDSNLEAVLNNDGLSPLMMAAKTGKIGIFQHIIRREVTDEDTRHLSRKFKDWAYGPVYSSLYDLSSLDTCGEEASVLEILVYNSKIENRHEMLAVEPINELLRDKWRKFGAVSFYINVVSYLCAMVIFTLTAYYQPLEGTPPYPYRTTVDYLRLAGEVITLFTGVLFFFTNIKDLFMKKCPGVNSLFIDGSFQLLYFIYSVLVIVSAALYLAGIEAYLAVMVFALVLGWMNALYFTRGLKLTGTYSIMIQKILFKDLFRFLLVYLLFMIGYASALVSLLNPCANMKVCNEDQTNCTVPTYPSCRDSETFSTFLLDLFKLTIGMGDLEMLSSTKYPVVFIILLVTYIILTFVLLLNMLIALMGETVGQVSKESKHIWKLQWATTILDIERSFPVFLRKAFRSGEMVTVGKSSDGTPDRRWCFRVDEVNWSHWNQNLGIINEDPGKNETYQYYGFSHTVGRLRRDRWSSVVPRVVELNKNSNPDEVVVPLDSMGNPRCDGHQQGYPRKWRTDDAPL
# T1 sequence (A0A8F4X677 1-871): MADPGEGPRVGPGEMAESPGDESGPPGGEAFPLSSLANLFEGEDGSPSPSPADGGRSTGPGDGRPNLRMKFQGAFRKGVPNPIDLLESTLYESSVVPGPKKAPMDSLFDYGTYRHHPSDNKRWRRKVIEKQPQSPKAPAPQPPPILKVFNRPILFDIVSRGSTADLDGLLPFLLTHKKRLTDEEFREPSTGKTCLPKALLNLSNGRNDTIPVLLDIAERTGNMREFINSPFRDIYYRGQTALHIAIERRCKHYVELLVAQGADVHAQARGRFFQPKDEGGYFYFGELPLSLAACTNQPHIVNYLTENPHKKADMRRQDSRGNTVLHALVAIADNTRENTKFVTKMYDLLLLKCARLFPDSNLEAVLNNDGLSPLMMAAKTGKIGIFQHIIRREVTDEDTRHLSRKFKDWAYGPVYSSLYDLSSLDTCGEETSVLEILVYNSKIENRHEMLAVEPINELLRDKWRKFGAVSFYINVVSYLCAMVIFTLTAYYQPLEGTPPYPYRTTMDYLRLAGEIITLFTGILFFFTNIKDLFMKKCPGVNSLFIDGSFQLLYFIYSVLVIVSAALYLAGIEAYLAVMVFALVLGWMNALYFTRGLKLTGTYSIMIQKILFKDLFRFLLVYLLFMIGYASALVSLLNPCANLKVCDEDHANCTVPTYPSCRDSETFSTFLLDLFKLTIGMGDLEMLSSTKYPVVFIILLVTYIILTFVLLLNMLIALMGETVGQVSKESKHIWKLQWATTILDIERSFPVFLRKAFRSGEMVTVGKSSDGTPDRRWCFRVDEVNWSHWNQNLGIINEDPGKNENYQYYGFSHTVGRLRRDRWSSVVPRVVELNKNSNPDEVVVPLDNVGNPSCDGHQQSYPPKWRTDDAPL
structure (smiles),measurement,setting,value
"CC(C)C[C@H](NC(=O)c1cc2ccccc2s1)C(=O)N[C@@H]1CCCN(S(=O)(=O)c2ccccc2C#N)CC1=O [Formula IId, N-{(1s)-1-[({(4r)-1-[(2-Cyanophenyl)Sulfonyl]-3-Oxohexahydro-1H-Azepin-4-Yl}Amino)Carbonyl]-3-Methylbutyl}-1-Benzothiophene-2-Carboxamide]",Ca Influx - FLEX (bovine) % effic.,[1],79%
same,EC50,[1]; read-out: Ca Influx - FLEX (bovine) EC50,120 nM
same,IC50,[2],40 nM
same,IC50,[3],10 nM
same,inhibition at 0.01 µM,"[4]; Homo sapiens, IL-1 (100 ng/ml), 0.01 uM, relative to IL-1 stim. GAG release",35%
same,inhibition at 0.1 µM,"[4]; Homo sapiens, IL-1 (100 ng/ml), 0.1 uM, relative to IL-1 stim. GAG release",89%
same,inhibition at 1 µM,"[4]; Homo sapiens, IL-1 (100 ng/ml), 1 uM, relative to IL-1 stim. GAG release",> 100%
same,inhibition at 0.01 µM,"[4]; Homo sapiens, unstimulated, 0.01 uM, relative to control GAG release",12%
same,inhibition at 0.1 µM,"[4]; Homo sapiens, unstimulated, 0.1 uM, relative to control GAG release",34%
same,inhibition at 1 µM,"[4]; Homo sapiens, unstimulated, 1 uM, relative to control GAG release",45%
same,IC50,"[4]; Homo sapiens, estimated, 3-point concentration response",30 nM
same,GAG Mean ± SEM,"[4]; IL-1 (100 ng/ml), 0.01 uM",15.9 ± 1.6 µg/mg
same,GAG Mean ± SEM,"[4]; IL-1 (100 ng/ml), 0.1 uM",8.2 ± 0.5 µg/mg
same,GAG Mean ± SEM,"[4]; IL-1 (100 ng/ml), 1 uM",4.8 ± 0.5 µg/mg
same,% inhibition,"[4]; IL-1 (100 ng/ml), 1 uM, relative to IL-1 stim. GAG release",113** %
same,blocking of aggrecan degradation in unstimulated human cartilage explants,[4]; absence of IL-1,effective in blocking aggrecan degradation
same,GAG Mean ± SEM,"[4]; unstimulated control, 0.01 uM",5.9 ± 0.3 µg/mg
same,GAG Mean ± SEM,"[4]; unstimulated control, 0.1 uM",4.4 ± 0.2 µg/mg
same,GAG Mean ± SEM,"[4]; unstimulated control, 1 uM",3.7 ± 0.3 µg/mg
same,block of IL-1-induced collagen degradation,[5],"partially, but effectively, blocked"
same,effect on membrane currents,[6],no measurable effect
same,EC50,"[7]; Ca Influx - FLEX (human) EC50, human chondrocytes",110 nM
same,Ca Influx - FLEX (human) % effic.,[7]; human chondrocytes,179%
same,TRPV4 channel receptor-mediated current,"[8]; 100 nM, -100 mV to +100 mV ramp",activated a human TRPV4 channel receptor
same,lowest concentration observed to activate the human TRPV4 channel receptor,[8]; whole cell patch clamp,10 nM
